Data taken from US11969428B2, “Methods and pharmaceutical compositions for treating lymphoid malignancy” (priority 2011, dated 2024).

What was measured:
Experiment in all cases: Ambit KinomeScan screening
Type in all cases: binding
Conditions in all cases: CAL-130 10 μM
NEK1 = molecular target: T1, NEK1 (Homo sapiens, UniProt Q96PY6)
T1 construct: unspecified tag; purchased Ambit (KinomeScan screening panel)
Method in brief: (§1)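 Competition binding, 10 μM CAL-130 vs immobilized bait ligand; tagged kinases; readout % of control binding (lower = tighter); >35% = non-hit.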

PRKCD = molecular target: T2, PRKCD (Homo sapiens, UniProt Q05655)
T2 construct: purchased Ambit (KinomeScan screening service)
Method in brief: as §1

AXL = molecular target: T3, AXL (Homo sapiens, UniProt P30530)
T3 construct: purchased Ambit (KinomeScan screening service)
T3 sequence (P30530 26-894): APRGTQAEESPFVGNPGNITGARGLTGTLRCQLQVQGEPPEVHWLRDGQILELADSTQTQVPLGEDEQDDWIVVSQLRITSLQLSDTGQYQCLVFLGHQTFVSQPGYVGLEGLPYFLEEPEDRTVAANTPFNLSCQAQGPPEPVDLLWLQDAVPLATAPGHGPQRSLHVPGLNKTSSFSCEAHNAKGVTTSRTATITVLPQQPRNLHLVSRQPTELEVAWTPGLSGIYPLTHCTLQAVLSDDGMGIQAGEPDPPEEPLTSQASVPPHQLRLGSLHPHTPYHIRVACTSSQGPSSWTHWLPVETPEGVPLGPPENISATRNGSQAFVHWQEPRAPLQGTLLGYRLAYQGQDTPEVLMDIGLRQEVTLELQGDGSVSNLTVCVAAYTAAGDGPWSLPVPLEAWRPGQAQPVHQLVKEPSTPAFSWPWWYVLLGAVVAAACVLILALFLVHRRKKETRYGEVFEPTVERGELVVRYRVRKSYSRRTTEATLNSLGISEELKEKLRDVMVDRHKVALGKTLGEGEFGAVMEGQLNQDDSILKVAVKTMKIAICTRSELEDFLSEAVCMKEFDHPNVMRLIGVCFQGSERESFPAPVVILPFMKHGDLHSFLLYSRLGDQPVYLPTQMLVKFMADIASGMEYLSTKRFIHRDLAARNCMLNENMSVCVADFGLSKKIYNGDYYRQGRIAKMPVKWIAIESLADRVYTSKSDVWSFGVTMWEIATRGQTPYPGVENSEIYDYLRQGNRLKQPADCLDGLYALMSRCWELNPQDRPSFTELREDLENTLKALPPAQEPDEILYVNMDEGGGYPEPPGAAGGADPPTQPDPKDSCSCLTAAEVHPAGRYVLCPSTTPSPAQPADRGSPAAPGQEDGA
Method in brief: as §1

KIT(L576P) = molecular target: T4, KIT(L576P) (Homo sapiens, UniProt P10721, L576P)
T4 construct: purchased Ambit (KinomeScan screening)
T4 sequence (P10721 26-976 L576P): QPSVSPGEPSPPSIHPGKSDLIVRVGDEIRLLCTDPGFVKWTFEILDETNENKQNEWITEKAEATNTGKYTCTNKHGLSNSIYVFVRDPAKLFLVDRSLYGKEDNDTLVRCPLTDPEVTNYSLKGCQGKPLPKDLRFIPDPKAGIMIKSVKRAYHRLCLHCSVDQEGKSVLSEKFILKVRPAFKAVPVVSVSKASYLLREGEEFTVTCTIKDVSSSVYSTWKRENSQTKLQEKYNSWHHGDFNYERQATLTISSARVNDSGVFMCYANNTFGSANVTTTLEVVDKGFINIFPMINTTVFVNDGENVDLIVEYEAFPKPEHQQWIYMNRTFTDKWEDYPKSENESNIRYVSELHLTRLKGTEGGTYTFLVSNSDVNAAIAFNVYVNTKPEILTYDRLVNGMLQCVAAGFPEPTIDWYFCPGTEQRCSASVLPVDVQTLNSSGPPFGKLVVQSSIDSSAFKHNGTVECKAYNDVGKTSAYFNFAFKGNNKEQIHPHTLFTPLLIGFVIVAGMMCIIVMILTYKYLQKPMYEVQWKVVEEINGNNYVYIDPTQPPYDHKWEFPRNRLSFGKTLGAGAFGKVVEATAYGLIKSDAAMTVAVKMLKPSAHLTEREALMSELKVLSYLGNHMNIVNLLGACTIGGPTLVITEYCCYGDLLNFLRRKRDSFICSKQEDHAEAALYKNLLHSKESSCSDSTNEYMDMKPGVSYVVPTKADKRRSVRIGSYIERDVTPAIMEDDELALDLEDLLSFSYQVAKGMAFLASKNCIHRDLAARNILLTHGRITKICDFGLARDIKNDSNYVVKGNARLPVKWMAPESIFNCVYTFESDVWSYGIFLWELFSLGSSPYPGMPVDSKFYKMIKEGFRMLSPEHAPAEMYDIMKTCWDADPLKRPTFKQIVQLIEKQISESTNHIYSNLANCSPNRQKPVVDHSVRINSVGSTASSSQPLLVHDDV
Method in brief: as §1

PIM1 = molecular target: T5, PIM1 (Homo sapiens, UniProt P11309)
T5 construct: unspecified tag; purchased Ambit (KinomeScan screening panel)
T5 sequence (P11309 whole entry): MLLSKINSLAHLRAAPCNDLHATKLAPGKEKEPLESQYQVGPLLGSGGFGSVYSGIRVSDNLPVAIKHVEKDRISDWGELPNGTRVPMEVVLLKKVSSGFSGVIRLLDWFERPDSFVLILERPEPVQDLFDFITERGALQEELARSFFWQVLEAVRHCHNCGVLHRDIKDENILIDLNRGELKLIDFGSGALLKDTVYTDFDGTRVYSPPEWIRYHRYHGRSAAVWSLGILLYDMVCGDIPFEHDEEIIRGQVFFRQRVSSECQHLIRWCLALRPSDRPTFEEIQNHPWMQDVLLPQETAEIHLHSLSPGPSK
Method in brief: as §1

FYN = molecular target: T6, FYN (Homo sapiens, UniProt P06241)
T6 construct: unspecified tag ('tagged kinases'); purchased Ambit (KinomeScan screening service)
Method in brief: as §1

CDKL5 = molecular target: T7, CDKL5 (Homo sapiens, UniProt O76039)
T7 construct: purchased Ambit (KinomeScan screening service)
Method in brief: as §1

JAK2(JH1domain) = molecular target: T8, JAK2(JH1domain) (Homo sapiens, UniProt O60674)
T8 construct: JAK2(JH1domain); purchased Ambit (KinomeScan screening)
Method in brief: as §1

FLT3(N841I) = molecular target: T9, FLT3(N841I) (Homo sapiens, UniProt P36888, N841I)
T9 construct: unspecified tag; purchased Ambit (KinomeScan screening service)
Method in brief: as §1

RPS6KA4 = molecular target: T10, RPS6KA4 (Homo sapiens, UniProt O75676)
T10 construct: tag, kind not specified; purchased Ambit (KinomeScan screening service)
Method in brief: as §1

PYK2 = molecular target: T11, PYK2 (Homo sapiens, UniProt Q14289)
T11 construct: tag (kind not specified); purchased Ambit (KinomeScan screening service)
Method in brief: as §1

BMPR1A = molecular target: T12, BMPR1A (Homo sapiens, UniProt P36894)
T12 construct: purchased Ambit (KinomeScan screening service)
Method in brief: as §1

ERBB3 = molecular target: T13, ERBB3 (Homo sapiens, UniProt P21860)
T13 construct: unspecified tag ("tagged kinases"); purchased Ambit (KinomeScan screening service)
Method in brief: as §1

PRKCH = molecular target: T14, PRKCH (Homo sapiens, UniProt P24723)
T14 construct: purchased Ambit (KinomeScan screening service)
Method in brief: as §1

MINK = molecular target: T15, MINK (Homo sapiens, UniProt Q8N4C8)
T15 construct: unspecified tag ('tagged kinases'); purchased Ambit (KinomeScan screening)
Method in brief: as §1

JNK1 = molecular target: T16, JNK1 (Homo sapiens, UniProt P45983)
T16 construct: purchased Ambit (KinomeScan screening)
Method in brief: as §1

ERK3 = molecular target: T17, ERK3 (Homo sapiens, UniProt Q16659)
T17 construct: unspecified tag ("tagged kinases"); purchased Ambit (KinomeScan screening service)
Method in brief: as §1

PLK1 = molecular target: T18, PLK1 (Homo sapiens, UniProt P53350)
T18 construct: purchased Ambit (KinomeScan screening service)
Method in brief: as §1

DCAMKL1 = molecular target: T19, DCAMKL1 (Homo sapiens, UniProt O15075)
T19 construct: unspecified tag ("tagged kinases"); purchased Ambit (KinomeScan screening service)
Method in brief: as §1

PKAC-β = molecular target: T20, PKAC-β (Homo sapiens, UniProt P22694)
T20 construct: unspecified tag; purchased Ambit (KinomeScan screening panel)
Method in brief: as §1

IKK-[…] = molecular target: T21, IKK-[…] (Homo sapiens, UniProt Q14164)
T21 construct: Ambit (KinomeScan screening)
T21 sequence (Q14164 whole entry): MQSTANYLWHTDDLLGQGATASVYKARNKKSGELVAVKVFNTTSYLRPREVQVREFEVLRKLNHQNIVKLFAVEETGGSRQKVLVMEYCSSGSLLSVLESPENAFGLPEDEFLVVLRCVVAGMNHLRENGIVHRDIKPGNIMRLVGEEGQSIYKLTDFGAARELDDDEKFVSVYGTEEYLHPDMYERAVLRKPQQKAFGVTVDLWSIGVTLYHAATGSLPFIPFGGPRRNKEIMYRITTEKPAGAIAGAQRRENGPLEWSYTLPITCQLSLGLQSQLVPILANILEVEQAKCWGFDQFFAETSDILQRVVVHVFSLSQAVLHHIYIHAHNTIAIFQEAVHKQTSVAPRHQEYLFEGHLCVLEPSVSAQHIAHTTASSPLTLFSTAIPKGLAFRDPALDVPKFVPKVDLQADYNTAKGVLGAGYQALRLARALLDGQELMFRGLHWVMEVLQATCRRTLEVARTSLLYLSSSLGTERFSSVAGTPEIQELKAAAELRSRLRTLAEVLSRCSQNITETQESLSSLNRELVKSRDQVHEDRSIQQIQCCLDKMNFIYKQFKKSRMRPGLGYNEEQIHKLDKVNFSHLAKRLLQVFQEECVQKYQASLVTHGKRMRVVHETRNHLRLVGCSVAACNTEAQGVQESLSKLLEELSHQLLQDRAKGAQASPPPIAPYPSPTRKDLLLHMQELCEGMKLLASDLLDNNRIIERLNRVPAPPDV
Method in brief: as §1

CLK2 = molecular target: T22, CLK2 (Homo sapiens, UniProt P49760)
T22 construct: purchased Ambit (KinomeScan screening service)
Method in brief: as §1

ERK1 = molecular target: T23, ERK1 (Homo sapiens, UniProt P27361)
T23 construct: unspecified tag ("tagged kinases"); purchased Ambit (KinomeScan screening service)
T23 sequence (P27361 whole entry): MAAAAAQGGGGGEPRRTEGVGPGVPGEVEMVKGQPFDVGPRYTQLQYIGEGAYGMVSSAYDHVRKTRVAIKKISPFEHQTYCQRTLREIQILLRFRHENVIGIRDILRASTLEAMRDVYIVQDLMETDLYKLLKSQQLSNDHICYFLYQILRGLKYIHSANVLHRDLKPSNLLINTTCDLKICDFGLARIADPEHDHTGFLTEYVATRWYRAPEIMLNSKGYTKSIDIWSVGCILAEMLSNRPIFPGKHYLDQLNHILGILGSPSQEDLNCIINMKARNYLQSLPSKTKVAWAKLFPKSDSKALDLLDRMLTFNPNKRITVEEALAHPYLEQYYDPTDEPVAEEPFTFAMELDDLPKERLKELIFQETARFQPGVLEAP
Method in brief: as §1

DAPK3 = molecular target: T24, DAPK3 (Homo sapiens, UniProt O43293)
T24 construct: unspecified tag ("tagged kinases"); purchased Ambit (KinomeScan screening service)
T24 sequence (O43293 whole entry): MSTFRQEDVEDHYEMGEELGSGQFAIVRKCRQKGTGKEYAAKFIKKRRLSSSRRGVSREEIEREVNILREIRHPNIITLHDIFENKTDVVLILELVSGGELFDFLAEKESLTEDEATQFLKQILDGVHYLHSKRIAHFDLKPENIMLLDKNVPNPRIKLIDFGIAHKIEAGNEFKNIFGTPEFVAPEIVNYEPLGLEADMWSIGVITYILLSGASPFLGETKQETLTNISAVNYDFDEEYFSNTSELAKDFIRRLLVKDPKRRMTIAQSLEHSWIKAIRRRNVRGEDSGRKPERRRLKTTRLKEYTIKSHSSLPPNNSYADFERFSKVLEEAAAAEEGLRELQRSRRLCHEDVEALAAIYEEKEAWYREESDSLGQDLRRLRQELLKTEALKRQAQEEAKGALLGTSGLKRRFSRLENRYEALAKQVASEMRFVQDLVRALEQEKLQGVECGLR
Method in brief: as §1

PFTAIRE2 = molecular target: T25, PFTAIRE2 (Homo sapiens, UniProt Q96Q40)
T25 construct: unspecified tag ('tagged kinases'); purchased Ambit (KinomeScan screening)
Method in brief: as §1

ERN1 = molecular target: T26, ERN1 (Homo sapiens, UniProt O75460)
T26 construct: unspecified tag ("tagged kinases"); purchased Ambit (KinomeScan screening service)
Method in brief: as §1

CIT = molecular target: T27, CIT (Homo sapiens, UniProt O14578)
T27 construct: purchased Ambit (KinomeScan screening service)
Method in brief: as §1

KIT(V559D, V654A) = molecular target: T28, KIT(V559D, V654A) (Homo sapiens, UniProt P10721, V559D/V654A)
T28 construct: unspecified tag ('tagged kinases'); purchased Ambit (KinomeScan screening service)
Method in brief: as §1

PLK4 = molecular target: T29, PLK4 (Homo sapiens, UniProt O00444)
T29 construct: purchased Ambit (KinomeScan screening service)
Method in brief: as §1

MYO3A = molecular target: T30, MYO3A (Homo sapiens, UniProt Q8NEV4)
T30 construct: unspecified tag; purchased Ambit (KinomeScan screening panel)
Method in brief: as §1

NEK9 = molecular target: T31, NEK9 (Homo sapiens, UniProt Q8TD19)
T31 construct: purchased Ambit (KinomeScan screening service)
Method in brief: as §1

FGFR2 = molecular target: T32, FGFR2 (Homo sapiens, UniProt P21802)
T32 construct: unspecified tag; purchased Ambit (KinomeScan screening service)
T32 sequence (P21802 22-821): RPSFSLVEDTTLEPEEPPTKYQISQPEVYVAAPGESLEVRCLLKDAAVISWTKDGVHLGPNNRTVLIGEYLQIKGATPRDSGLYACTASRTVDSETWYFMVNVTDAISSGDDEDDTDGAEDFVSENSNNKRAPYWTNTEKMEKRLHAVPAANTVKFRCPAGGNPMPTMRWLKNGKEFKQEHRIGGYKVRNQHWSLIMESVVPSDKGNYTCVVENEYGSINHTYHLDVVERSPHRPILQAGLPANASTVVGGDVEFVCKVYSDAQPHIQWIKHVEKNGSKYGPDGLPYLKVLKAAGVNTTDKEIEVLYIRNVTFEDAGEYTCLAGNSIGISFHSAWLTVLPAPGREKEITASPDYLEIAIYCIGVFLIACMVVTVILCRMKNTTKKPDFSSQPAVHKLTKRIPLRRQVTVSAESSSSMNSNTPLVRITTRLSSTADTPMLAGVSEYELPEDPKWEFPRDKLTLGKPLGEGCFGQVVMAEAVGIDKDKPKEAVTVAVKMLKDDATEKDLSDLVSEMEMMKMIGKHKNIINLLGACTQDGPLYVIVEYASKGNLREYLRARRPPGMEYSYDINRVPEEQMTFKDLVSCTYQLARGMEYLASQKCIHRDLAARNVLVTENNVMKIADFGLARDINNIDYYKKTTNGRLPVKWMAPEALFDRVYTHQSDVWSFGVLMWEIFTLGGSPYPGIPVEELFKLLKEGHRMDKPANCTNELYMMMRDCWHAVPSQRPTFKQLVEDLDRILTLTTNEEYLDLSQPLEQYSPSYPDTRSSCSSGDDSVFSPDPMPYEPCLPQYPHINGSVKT
Method in brief: as §1

MARK4 = molecular target: T33, MARK4 (Homo sapiens, UniProt Q96L34)
T33 construct: purchased Ambit (KinomeScan screening)
Method in brief: as §1

MST1R = molecular target: T34, MST1R (Homo sapiens, UniProt Q04912)
T34 construct: unspecified tag ('tagged kinases'); purchased Ambit (KinomeScan screening)
Method in brief: as §1

STK35 = molecular target: T35, STK35 (Homo sapiens, UniProt Q8TDR2)
T35 construct: tag (kind not specified); purchased Ambit (KinomeScan screening service)
T35 sequence (Q8TDR2 whole entry): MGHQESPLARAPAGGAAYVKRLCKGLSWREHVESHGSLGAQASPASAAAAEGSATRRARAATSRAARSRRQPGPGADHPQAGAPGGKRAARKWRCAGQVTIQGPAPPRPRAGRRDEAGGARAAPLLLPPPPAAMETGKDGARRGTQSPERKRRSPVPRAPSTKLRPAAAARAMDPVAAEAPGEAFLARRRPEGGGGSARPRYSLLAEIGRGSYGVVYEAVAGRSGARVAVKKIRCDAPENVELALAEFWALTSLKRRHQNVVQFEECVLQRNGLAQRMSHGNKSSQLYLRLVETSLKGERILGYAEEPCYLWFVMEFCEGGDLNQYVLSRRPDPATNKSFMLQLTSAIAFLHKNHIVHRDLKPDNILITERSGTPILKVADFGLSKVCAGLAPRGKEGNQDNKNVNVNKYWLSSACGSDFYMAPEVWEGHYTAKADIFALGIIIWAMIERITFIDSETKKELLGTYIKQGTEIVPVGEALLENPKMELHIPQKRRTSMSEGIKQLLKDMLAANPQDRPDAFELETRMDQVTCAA
Method in brief: as §1

GSK3A = molecular target: T36, GSK3A (Homo sapiens, UniProt P49840)
T36 construct: unspecified tag ('tagged kinases'); purchased Ambit (KinomeScan screening service)
Method in brief: as §1

Measured: Percent of Control Binding

Cc1ccccc1-n1c(C(C)Nc2nc(N)nc3nc[nH]c23)nc2cccc(C)c2c1=O (stereo not drawn) [CAL-130]
100%: all assays above
